According to US8841269B2, “Polynucleotides for use in treating and diagnosing cancers” (Creighton University, priority 2010, dated 2014):

Assay: Stability of miRNAs in serum (room temperature, freeze/thaw)
Assay type: physicochemical, human
Settings: serum from a healthy person, freeze/thaw up to eight times
Protocol: FIG. 21. Stability of miRNAs in room temperature for number of time points. 300 μl of sera from a healthy person was thawed on ice and lysed with an equal volume of 2× Denaturing Solution (Ambion). RNA was isolated spiked sera using the mirVana PARIS kit following the manufacturer's protocol for liquid samples (Ambion). RNA was eluted with 50 μl of nuclease-free water. This experiment was performed in triplicates.
FIG. 22. Stability of miRNAs in freeze/thaws. 300 μl of sera from a healthy person was thawed on ice, exogenous miRNAs were spiked in, and then performed freeze/thaw cycles for the indicated times, then lysed with an equal volume of 2× Denaturing Solution (Ambion). RNA was isolated spiked sera using the mirVana PARIS kit following the manufacturer's protocol for liquid samples (Ambion). RNA was eluted with 50 μl of nuclease-free water. This experiment was performed in triplicates.
Second, we wanted to know whether our lab conditions such as temperature and freezing and thawing affect the stability of miRNAs. We selected a serum sample from healthy […], and incubated in room temperature for a series of time points (spiked three exogenous miRNAs as external controls) (FIG. 21). As expected, the selected miRNAs were very stable throughout the experiment. This observation is in consistent with the literature (Mitchell et al., 2008, Proc. Natl. Acad. Sci. U.S.A 105:10513-8). […]

let-7i: let-7i miRNA (mimic), 3′-UUGUCGUGUUUGAUGAUGGAGU-5′ (SEQ ID NO:14) (chemistry not given here; listed 3' to 5')
stability in repeated freeze/thaws: relatively stable

let-7b: let-7b miRNA (mimic), 3′-UUGGUGUGUUGGAUGAUGGAGU-5′ (SEQ ID NO:8) (chemistry not given here; listed 3' to 5')
stability in repeated freeze/thaws: relatively stable
